Tested on: GRMD plasma proteins
Type: in vivo, dog
Details: Post-Treatment to GRMD baseline; Increased in GRMD

O=c1ccc(-c2cnc(OCC(F)(F)F)nc2)nn1Cc1cncc(F)c1 [EDG-5506]
Change from GRMD Baseline (fraction): Fructose-bisphosphate aldolase A (ALDOA): -0.0462 fraction
Change from GRMD Baseline (fraction): G2/mitotic-specific cyclin-B1 (CCNB1): 0.0445 fraction
Change from GRMD Baseline (fraction): Galectin-4 (LGALS4): -0.0246 fraction
Change from GRMD Baseline (fraction): Galectin-7 (LGALS7): 0.0215 fraction
Change from GRMD Baseline (fraction): Glucose-6-phosphate isomerase (GPI): -0.1195 fraction
Change from GRMD Baseline (fraction): Glyceraldehyde-3-phosphate dehydrogenase (GAPDH): 0.1936 fraction
Change from GRMD Baseline (fraction): Glycogen synthase kinase-3 alpha/beta (GSK3A GSK3B): -0.1722 fraction
Change from GRMD Baseline (fraction): Granulocyte-macrophage colony-stimulating factor (CSF2): -0.1154 fraction
Change from GRMD Baseline (fraction): Growth factor receptor-bound protein 2 (GRB2): -0.2826 fraction
Change from GRMD Baseline (fraction): Growth/differentiation factor 5 (GDF5): -0.0828 fraction
Change from GRMD Baseline (fraction): Heat shock 70 kDa protein 1A (HSPA1A): -0.1812 fraction
Change from GRMD Baseline (fraction): Heat shock cognate 71 kDa protein (HSPA8): -0.1958 fraction
Change from GRMD Baseline (fraction): Heat shock protein HSP 90-alpha/beta (HSP90AA1 HSP90AB1): -0.0775 fraction
Change from GRMD Baseline (fraction): Heat shock protein HSP 90-beta (HSP90AB1): -0.0807 fraction
Change from GRMD Baseline (fraction): Heat shock protein beta-1 (HSPB1): -0.0394 fraction
Change from GRMD Baseline (fraction): Hepatoma-derived growth factor-related protein 2 (HDGFRP2): 0.011 fraction
Change from GRMD Baseline (fraction): Heterogeneous nuclear ribonucleoprotein A/B (HNRNPAB): -0.0915 fraction
Change from GRMD Baseline (fraction): Heterogeneous nuclear ribonucleoprotein Q (SYNCRIP): -0.0651 fraction
Change from GRMD Baseline (fraction): Heterogeneous nuclear ribonucleoproteins A2/B1 (HNRNPA2B1): -0.1176 fraction
Change from GRMD Baseline (fraction): Hexokinase-2 (HK2): 0.0338 fraction
Change from GRMD Baseline (fraction): Histidine triad nucleotide-binding protein 1 (HINT1): -0.0574 fraction
Change from GRMD Baseline (fraction): Histone H1.2 (HIST1H1C): -0.0242 fraction
Change from GRMD Baseline (fraction): Histone deacetylase 8 (HDAC8): 0.0429 fraction
Change from GRMD Baseline (fraction): Homeodomain-interacting protein kinase 3 (HIPK3): 0.4997 fraction
Change from GRMD Baseline (fraction): Immunoglobulin superfamily containing leucine-rich repeat protein 2 (ISLR2): -0.0595 fraction
Change from GRMD Baseline (fraction): Inducible T-cell costimulator (ICOS): -0.0476 fraction
Change from GRMD Baseline (fraction): Inosine-5'-monophosphate dehydrogenase 2 (IMPDH2): -0.0129 fraction
Change from GRMD Baseline (fraction): Insulin-degrading enzyme (IDE): -0.2863 fraction
Change from GRMD Baseline (fraction): Insulin-like growth factor-binding protein 3 (IGFBP3): 0.0105 fraction
Change from GRMD Baseline (fraction): Intercellular adhesion molecule 5 (ICAM5): -0.1345 fraction
Change from GRMD Baseline (fraction): Interferon alpha-10 (IFNA10): -0.0472 fraction
Change from GRMD Baseline (fraction): Interleukin-1 alpha (IL1A): -0.0188 fraction
Change from GRMD Baseline (fraction): Interleukin-1 receptor-like 2 (IL1RL2): 0.0618 fraction
Change from GRMD Baseline (fraction): Interleukin-15 receptor subunit alpha (IL15RA): -0.0392 fraction
Change from GRMD Baseline (fraction): Interleukin-17F (IL17F): -0.0474 fraction
Change from GRMD Baseline (fraction): Interleukin-37 (IL37): -0.0158 fraction
Change from GRMD Baseline (fraction): Junctional adhesion molecule B (JAM2): -0.0421 fraction
Change from GRMD Baseline (fraction): Junctional adhesion molecule C (JAM3): 0.0569 fraction
Change from GRMD Baseline (fraction): Kallikrein-6 (KLK6): -0.032 fraction
Change from GRMD Baseline (fraction): Kallikrein-12 (KLK12): 0.0927 fraction
Change from GRMD Baseline (fraction): Kallikrein-14 (KLK14): 0.0054 fraction
Change from GRMD Baseline (fraction): Kin of IRRE-like protein 3 (KIRREL3): 0.0811 fraction
Change from GRMD Baseline (fraction): Kremen protein 2 (KREMEN2): -0.0135 fraction
Change from GRMD Baseline (fraction): Kynureninase (KYNU): 0.1449 fraction
Change from GRMD Baseline (fraction): L-Selectin (SELL): -0.0484 fraction
Change from GRMD Baseline (fraction): L-lactate dehydrogenase B chain (LDHB): -0.1273 fraction
Change from GRMD Baseline (fraction): Leucine-rich repeat serine/threonine-protein kinase 2 (LRRK2): -0.023 fraction
Change from GRMD Baseline (fraction): Leucine-rich repeat transmembrane protein FLRT1 (FLRT1): 0.162 fraction
Change from GRMD Baseline (fraction): Low affinity immunoglobulin epsilon Fc receptor (FCER2): -0.0106 fraction
Change from GRMD Baseline (fraction): MAP kinase-activated protein kinase 2 (MAPKAPK2): -0.1017 fraction
Change from GRMD Baseline (fraction): MAP kinase-activated protein kinase 3 (MAPKAPK3): -0.0643 fraction
Change from GRMD Baseline (fraction): Macrophage scavenger receptor types I and II (MSR1): 0.4558 fraction
Change from GRMD Baseline (fraction): Malate dehydrogenase, cytoplasmic (MDH1): -0.0153 fraction
Change from GRMD Baseline (fraction): Methionine aminopeptidase 2 (METAP2): -0.0243 fraction
Change from GRMD Baseline (fraction): Microtubule-associated protein tau (MAPT): -0.0598 fraction
Change from GRMD Baseline (fraction): Mitogen-activated protein kinase 3 (MAPK3): -0.1158 fraction
Change from GRMD Baseline (fraction): Mitogen-activated protein kinase 8 (MAPK8): -0.1634 fraction
Change from GRMD Baseline (fraction): Mitogen-activated protein kinase 12 (MAPK12): -0.2043 fraction
Change from GRMD Baseline (fraction): Mitogen-activated protein kinase 14 (MAPK14): -0.1229 fraction
Change from GRMD Baseline (fraction): Mothers against decapentaplegic homolog 3 (SMAD3): -0.0623 fraction
Change from GRMD Baseline (fraction): Myeloblastin (PRTN3): -0.0133 fraction
Change from GRMD Baseline (fraction): Myoglobin (MB): -0.1998 fraction
Change from GRMD Baseline (fraction): Myosin-binding protein C, slow-type (MYBPC1): -0.0674 fraction
Change from GRMD Baseline (fraction): NKG2D ligand 2 (ULBP2): 0.031 fraction
Change from GRMD Baseline (fraction): NSFL1 cofactor p47 (NSFL1C): -0.264 fraction
Change from GRMD Baseline (fraction): Natural cytotoxicity triggering receptor 3 (NCR3): -0.0108 fraction
Change from GRMD Baseline (fraction): Neuronal cell adhesion molecule (NRCAM): -0.0939 fraction
Change from GRMD Baseline (fraction): Neutral ceramidase (ASAH2): -0.0127 fraction
Change from GRMD Baseline (fraction): Nucleoside diphosphate kinase A (NME1): -0.1372 fraction
Change from GRMD Baseline (fraction): OCIA domain-containing protein 1 (OCIAD1): -0.0044 fraction
Change from GRMD Baseline (fraction): Oncostatin-M (OSM): 0.019 fraction
Change from GRMD Baseline (fraction): Opioid-binding protein/cell adhesion molecule (OPCML): -0.0002 fraction
Change from GRMD Baseline (fraction): PIK3CA/PIK3R1 (PIK3CA PIK3R1): -0.229 fraction
Change from GRMD Baseline (fraction): Parathyroid hormone-related protein (PTHLH): -0.097 fraction
Change from GRMD Baseline (fraction): Peptidyl-prolyl cis-trans isomerase E (PPIE): -0.0771 fraction
Change from GRMD Baseline (fraction): Peroxiredoxin-1 (PRDX1): -0.0908 fraction
Change from GRMD Baseline (fraction): Peroxiredoxin-6 (PRDX6): -0.0459 fraction
Change from GRMD Baseline (fraction): Phosphatidylethanolamine-binding protein 1 (PEBP1): 0.0739 fraction
Change from GRMD Baseline (fraction): Phosphoglucomutase-1 (PGM1): 0.1179 fraction
Change from GRMD Baseline (fraction): Phosphoglycerate mutase 1 (PGAM1): -0.9265 fraction
Change from GRMD Baseline (fraction): Plasma serine protease inhibitor (SERPINA5): -0.0121 fraction
Change from GRMD Baseline (fraction): Platelet glycoprotein 4 (CD36): 0.0288 fraction
Change from GRMD Baseline (fraction): Platelet-activating factor acetylhydrolase (PLA2G7): 0.0256 fraction
Change from GRMD Baseline (fraction): Platelet-derived growth factor receptor alpha (PDGFRA): -0.0004 fraction
Change from GRMD Baseline (fraction): Proliferating cell nuclear antigen (PCNA): -0.0276 fraction
Change from GRMD Baseline (fraction): Protein NOV homolog (NOV): -0.0669 fraction
Change from GRMD Baseline (fraction): Protein S100-A12 (S100A12): -0.009 fraction
Change from GRMD Baseline (fraction): RAC-alpha/beta/gamma serine/threonine-protein kinase (AKT1 AKT2 AKT3): -0.2013 fraction
Change from GRMD Baseline (fraction): RAC-beta serine/threonine-protein kinase (AKT2): -0.1736 fraction
Change from GRMD Baseline (fraction): Rab GDP dissociation inhibitor beta (GDI2): -0.0642 fraction
Change from GRMD Baseline (fraction): Receptor tyrosine-protein kinase erbB-3 (ERBB3): -0.022 fraction
Change from GRMD Baseline (fraction): Receptor-type tyrosine-protein kinase FLT3 (FLT3): -0.0737 fraction
Change from GRMD Baseline (fraction): Renin (REN): -0.032 fraction
Change from GRMD Baseline (fraction): Retinoblastoma-associated protein (RB1): 0.235 fraction
Change from GRMD Baseline (fraction): S-formylglutathione hydrolase (ESD): 0.0004 fraction
Change from GRMD Baseline (fraction): Serine/threonine-protein kinase 17B (STK17B): 0.0071 fraction
Change from GRMD Baseline (fraction): Serine/threonine-protein kinase Chk2 (CHEK2): 0.4343 fraction
Change from GRMD Baseline (fraction): Serine/threonine-protein kinase WNK3 (WNK3): -0.2205 fraction
Change from GRMD Baseline (fraction): Serine/threonine-protein kinase receptor R3 (ACVRL1): -0.0651 fraction
Change from GRMD Baseline (fraction): Small nuclear ribonucleoprotein F (SNRPF): -0.0033 fraction
Change from GRMD Baseline (fraction): Somatostatin-28 (SST): -0.0229 fraction
Change from GRMD Baseline (fraction): T-lymphocyte activation antigen CD80 (CD80): 0.0022 fraction
Change from GRMD Baseline (fraction): Thymic stromal lymphopoietin (TSLP): -0.034 fraction
Change from GRMD Baseline (fraction): Thyroid peroxidase (TPO): -0.0311 fraction
Change from GRMD Baseline (fraction): Tissue factor pathway inhibitor (TFPI): 0.029 fraction
Change from GRMD Baseline (fraction): Transcription factor AP-1 (JUN): 0.0325 fraction
Change from GRMD Baseline (fraction): Transketolase (TKT): -0.16 fraction
Change from GRMD Baseline (fraction): Translationally-controlled tumor protein (TPT1): -0.0704 fraction
Change from GRMD Baseline (fraction): Triosephosphate isomerase (TPI1): -0.2239 fraction
Change from GRMD Baseline (fraction): Tropomyosin beta chain (TPM2): 0.0295 fraction
Change from GRMD Baseline (fraction): Troponin I, cardiac muscle (TNNI3): 0.0415 fraction
Change from GRMD Baseline (fraction): Troponin I, fast skeletal muscle (TNNI2): -0.0403 fraction
Change from GRMD Baseline (fraction): Troponin T, cardiac muscle (TNNT2): -0.0244 fraction
Change from GRMD Baseline (fraction): Tumor necrosis factor ligand superfamily member 11 (TNFSF11): 0.0726 fraction
Change from GRMD Baseline (fraction): Tumor necrosis factor receptor superfamily member 1B (TNFRSF1B): -0.0355 fraction
Change from GRMD Baseline (fraction): Tumor necrosis factor receptor superfamily member 3 (LTBR): -0.0213 fraction
Change from GRMD Baseline (fraction): Tyrosine-protein kinase Yes (YES1): -0.136 fraction
Change from GRMD Baseline (fraction): Tyrosine-protein kinase ZAP-70 (ZAP70): 0.0305 fraction
Change from GRMD Baseline (fraction): Tyrosine-protein phosphatase non-receptor type 1 (PTPN1): -0.0601 fraction

— article PMC10178848, “Modulating fast skeletal muscle contraction protects skeletal muscle in animal models of Duchenne muscular dystrophy” (The Journal of Clinical Investigation, 2023)
